These results are taken from article PMC9289672, “Optimization of Antibacterial Activity in Tibetan Swine α-Helix Peptide TP by Site-Directed Mutagenesis” (Frontiers in Microbiology, 2022).

Series [1] deals with Enterococcus faecalis ATCC 29212. From the text: (§1) The bacteria strains Escherichia coli ATCC 25922, Escherichia coli UB1005, Salmonella typhimurium ATCC 14028, Salmonella typhimurium C7731, Pseudomonas aeruginosa ATCC 27853, Pseudomonas aeruginosa PAO1, Staphylococcus aureus ATCC 29213, Staphylococcus aureus ATCC 25923, Methicillin-resistant Staphylococcus aureus (MRSA) 43300, Enterococcus faecalis ATCC 29212, and Staphylococcus epidermidis ATCC 12228 were obtained from the College of Veterinary Medicine, Northeast Agricultural University (Harbin, China).
(§2) The bacteria were cultured overnight in the MHB medium and transferred to the new MHB the next day until the bacteria reached the exponential growth stage. The bacteria were diluted with MHB to 2 × 10^5 CFU/ml. About 50 μl of polypeptide and equal volume of bacterial suspension was added to a 96-well plate to give the final concentration of polypeptide between 1 and 128 μm. The last two columns are negative (MHB only) and positive (bacterial and MHB) controls and incubated at 37°C for 18–24 h. Optical density was measured at an absorbance wavelength of 492 nm using a microplate reader (Tecan GENios F129004, Tecan, Austria). At least three independent measurements were taken. Each trial was conducted two times in parallel. A total of three independent assays were carried out.

The subject of series [2] is Escherichia coli ATCC 25922.
Source text: as §1, §2

Series [3] has as its system Escherichia coli UB1005. Particulars: MHB, bacteria diluted to 2 × 10^5 CFU/ml, peptide 1-128 μm, 37°C 18-24 h, OD 492 nm; three independent assays, two in parallel.
Source text: as §1, §2

The test system of series [4] is Methicillin-resistant Staphylococcus aureus (MRSA) 43300. Particulars: Methicillin-resistant 43300.
Source text: as §1, §2

Series [5] relates to Pseudomonas aeruginosa ATCC 27853.
Source text: as §1, §2

Series [6] deals with Pseudomonas aeruginosa PAO1.
Source text: as §1, §2

Series [7] deals with Salmonella typhimurium ATCC 14028.
Source text: as §1, §2

Series [8] has as its system Salmonella typhimurium C7731. The following applies: MHB, bacteria diluted to 2 × 10^5 CFU/ml, peptide 1-128 μm, 37°C 18-24 h, OD 492 nm; three independent assays, two in parallel.
Source text: as §1, §2

Series [9] relates to Staphylococcus aureus ATCC 25923.
Source text: as §1, §2

The subject of series [10] is Staphylococcus aureus ATCC 29213.
Source text: as §1, §2

Series [11] relates to Staphylococcus epidermidis ATCC 12228.
Source text: as §1, §2

The subject of series [12] is Gram-negative bacteria. Briefly: Geometric mean of MIC and therapeutic index. Type of series: cell-based. The following applies: MHC/GM; 128 μm used when 50% hemolysis not observed at 128 μm. How it is done:
as §2
(§3) Trp is a hydrophobic amino acid with aromatic side chains. It is a special amino acid in peptide design. Previous studies have pointed out that introducing amino acids will also bring toxicity while improving activity. […] For further evaluating the cell selectivity of the peptides, we also calculated the SI which defined as the ratio of MHC to the geometric mean (GM) (Dufourc, [2008]).

Series [13] concerns Gram-positive bacteria. The series is described as follows: Geometric mean of MIC and therapeutic index. Type of series: cell-based. Particulars: MHC/GM; 128 μm used when 50% hemolysis not observed at 128 μm. The protocol: as §2, §3
Series [14] relates to all strains in Table 2. The series is described as follows: Geometric mean of MIC and therapeutic index. The class given is cell-based. The following applies: MHC/GM; 128 μm used when 50% hemolysis not observed at 128 μm. The protocol:
as §2
Trp is a hydrophobic amino acid with aromatic side chains. It is a special amino acid in peptide design. Previous studies have pointed out that introducing amino acids will also bring toxicity while improving activity. Therefore, at the beginning of the design, we predicted that selecting Trp as hydrophobic amino acid to substitute H-H position would bring certain toxicity to the peptide. Thus, as expected, the introduction of Trp increases the activity and toxicity of these peptides. […] Meanwhile, the virulence of TP(i+4) 1&2&5&6 and TP(i+4) 1&2&6&7 was lower than that of TP(i+4) 1&2&5&7. We infer that the location of hydrophobic centers can effectively reduce peptide toxicity by Trp substitution. For further evaluating the cell selectivity of the peptides, we also calculated the SI which defined as the ratio of MHC to the geometric mean (GM) (Dufourc, [2008]).

In series [15] the test system is IPEC-J2 and HEK 293T cells.
Method: (§4) The cytotoxicity of each peptide was assessed with IPEC-J12 and HEK 293T cells. […] Each trial was conducted two times in parallel. A total of three independent assays were carried out.
Series [16] concerns hRBCs (human red blood cells). Briefly: Hemolytic activity. Particulars: three independent assays, two in parallel.
Method: as §4

Where no end group is shown, it is not given here.

For the substance ASVVKKWTKGWAKLLK-NH2 [TP(i+4) 1&2&6], the “MIC, E. faecalis 29212” value in series [1] amounted to 128 µM. Besides, the “MIC, E. coli 25922” value in series [2] was determined as 4 µM. Besides, in [3], the “MIC, E. coli UB1005” value came out at 8 µM. The “MIC, S. aureus 43300” value in series [4] turned out to be 64 µM. Besides, in series [5], the “MIC, P. aeruginosa 27853” value was found to be 32 µM. For the same substance, the “MIC, P. aeruginosa PAO1” value in series [6] came out at 8 µM. In series [7], the “MIC, S. typhimurium 14028” value stood at 16 µM. Also, the “MIC, S. typhimurium 7731” value in [8] turned out to be 32 µM. For the same substance, in [9], the “MIC, S. aureus 25923” value is 128 µM. Besides, in [10], the “MIC, S. aureus 29213” value came out at 64 µM. In [11], the “MIC, S. epidermidis 12228” value is 64 µM. For the same substance, the “Therapeutic index (TI), Gram-negative bacteria” value in [12] stood at 10.08. For the same substance, in series [13], the “Therapeutic index (TI), Gram-positive bacteria” value is 1.50. Also, the “Therapeutic index (TI) / selectivity index (SI), All” value in series [14] came out at 3.89. Moreover, the cell viability in series [15] is on record as ~ 50%. The “MHC (concentration of peptide that causes hemolysis of 50% of human red blood cells)” value in series [16] is above 128 µM.

In the case of ASVVKKWWKGWWKLLK-NH2 [TP(i+4) 1&2&5&6], the “MIC, E. faecalis 29212” value in series [1] came to 8 µM. Moreover, in series [2], the “MIC, E. coli 25922” value worked out at 1 µM. Moreover, the “MIC, E. coli UB1005” value in series [3] was determined as 2 µM. Besides, in [4], the “MIC, S. aureus 43300” value stood at 8 µM. Further, the “MIC, P. aeruginosa 27853” value in series [5] was determined as 4 µM. Also, in series [6], the “MIC, P. aeruginosa PAO1” value stood at 4 µM. Moreover, the “MIC, S. typhimurium 14028” value in [7] came out at 2 µM. Further, the “MIC, S. typhimurium 7731” value in series [8] is 4 µM. For the same substance, in series [9], the “MIC, S. aureus 25923” value worked out at 16 µM. For the same substance, in series [10], the “MIC, S. aureus 29213” value is 8 µM. Moreover, the “MIC, S. epidermidis 12228” value in series [11] came out at 8 µM. The “Therapeutic index (TI), Gram-negative bacteria” value in series [12] is 25.40. Further, the “Therapeutic index (TI), Gram-positive bacteria” value in series [13] came out at 6.96. In addition, the “Therapeutic index (TI) / selectivity index (SI), All” value in series [14] is 13.30. In [16], the “MHC (concentration of peptide that causes hemolysis of 50% of human red blood cells)” value came out at 64.00 µM.

ASVVKWLTKWVAKLLK-NH2 [TP(i+4) 1&2&7]: the “MIC, E. faecalis 29212” value in [1] worked out at 4 µM. For the same substance, the “MIC, E. coli 25922” value in [2] came out at 4 µM. In addition, the “MIC, E. coli UB1005” value in series [3] was found to be 4 µM. Besides, the “MIC, S. aureus 43300” value in [4] is 4 µM. Moreover, in [5], the “MIC, P. aeruginosa 27853” value is 4 µM. In addition, the “MIC, P. aeruginosa PAO1” value in series [6] turned out to be 4 µM. The “MIC, S. typhimurium 14028” value in [7] was 4 µM. For the same substance, the “MIC, S. typhimurium 7731” value in [8] was 8 µM. Moreover, the “MIC, S. aureus 25923” value in series [9] was 4 µM. Also, in series [10], the “MIC, S. aureus 29213” value came out at 2 µM. Further, the “MIC, S. epidermidis 12228” value in series [11] is 4 µM. In addition, the “Therapeutic index (TI), Gram-negative bacteria” value in series [12] amounted to 14.25. In series [13], the “Therapeutic index (TI), Gram-positive bacteria” value is listed as 18.39. For the same substance, in [14], the “Therapeutic index (TI) / selectivity index (SI), All” value worked out at 16.19. Further, the “MHC (concentration of peptide that causes hemolysis of 50% of human red blood cells)” value in series [16] was found to be 64.00 µM.

Consider ASVVKWLWKWVWKLLK-NH2 [TP(i+4) 1&2&5&7], for which the “MIC, E. faecalis 29212” value in series [1] amounted to 8 µM. For the same substance, in [2], the “MIC, E. coli 25922” value was determined as 16 µM. For the same substance, the “MIC, E. coli UB1005” value in [3] was 16 µM. In addition, the “MIC, S. aureus 43300” value in series [4] amounted to 16 µM. For the same substance, the “MIC, P. aeruginosa 27853” value in series [5] was above 128 µM. Also, the “MIC, P. aeruginosa PAO1” value in [6] is above 128 µM. In addition, the “MIC, S. typhimurium 14028” value in [7] came out at 32 µM. The “MIC, S. typhimurium 7731” value in [8] was above 128 µM. Besides, in series [9], the “MIC, S. aureus 25923” value worked out at 16 µM. The “MIC, S. aureus 29213” value in [10] stood at 8 µM. Besides, the “MIC, S. epidermidis 12228” value in series [11] is 8 µM. In [12], the “Therapeutic index (TI), Gram-negative bacteria” value was found to be 1.26. In series [13], the “Therapeutic index (TI), Gram-positive bacteria” value amounted to 6.06. Moreover, the “Therapeutic index (TI) / selectivity index (SI), All” value in series [14] came to 2.76. Besides, the “MHC (concentration of peptide that causes hemolysis of 50% of human red blood cells)” value in [16] stood at 64.00 µM.

Take ASVVKWWTKWWAKLLK-NH2 [TP(i+4) 1&2&6&7]: the “MIC, E. faecalis 29212” value in [1] stood at 2 µM. In series [2], the “MIC, E. coli 25922” value worked out at 4 µM. Further, the “MIC, E. coli UB1005” value in series [3] amounted to 4 µM. Moreover, the “MIC, S. aureus 43300” value in series [4] turned out to be 4 µM. Further, the “MIC, P. aeruginosa 27853” value in series [5] was determined as 8 µM. In addition, the “MIC, P. aeruginosa PAO1” value in [6] amounted to 4 µM. For the same substance, the “MIC, S. typhimurium 14028” value in [7] came to 4 µM. For the same substance, the “MIC, S. typhimurium 7731” value in series [8] turned out to be 8 µM. In addition, the “MIC, S. aureus 25923” value in [9] was determined as 2 µM. Moreover, in [10], the “MIC, S. aureus 29213” value came out at 2 µM. Moreover, the “MIC, S. epidermidis 12228” value in series [11] was 2 µM. Further, the “Therapeutic index (TI), Gram-negative bacteria” value in series [12] was 12.70. Moreover, the “Therapeutic index (TI), Gram-positive bacteria” value in [13] was determined as 27.83. Besides, the “Therapeutic index (TI) / selectivity index (SI), All” value in series [14] came to 18.80. Besides, in series [16], the “MHC (concentration of peptide that causes hemolysis of 50% of human red blood cells)” value was determined as 64.00 µM.

For the substance “ASVVKWWWKWWWKLLK-NH2 [TP(i+4) 1&2&5&6&7]”, the “MIC, E. faecalis 29212” value in series [1] amounted to 2 µM. Moreover, the “MIC, E. coli 25922” value in [2] came to 1 µM. Besides, the “MIC, E. coli UB1005” value in series [3] was 2 µM. In series [4], the “MIC, S. aureus 43300” value worked out at 4 µM. In addition, in series [5], the “MIC, P. aeruginosa 27853” value stood at 4 µM. Besides, the “MIC, P. aeruginosa PAO1” value in series [6] worked out at 4 µM. Besides, the “MIC, S. typhimurium 14028” value in [7] was found to be 2 µM. In addition, in series [8], the “MIC, S. typhimurium 7731” value was found to be 4 µM. In addition, the “MIC, S. aureus 25923” value in [9] stood at 4 µM. The “MIC, S. aureus 29213” value in series [10] worked out at 2 µM. Also, the “MIC, S. epidermidis 12228” value in series [11] amounted to 2 µM. Besides, the “Therapeutic index (TI), Gram-negative bacteria” value in [12] was 3.17. Besides, the “Therapeutic index (TI), Gram-positive bacteria” value in series [13] turned out to be 3.03. The “Therapeutic index (TI) / selectivity index (SI), All” value in series [14] is listed as 3.10. Moreover, in series [16], the “MHC (concentration of peptide that causes hemolysis of 50% of human red blood cells)” value came to 8.00 µM.
